# Laboratory results taken from patent publication US20230286816A1, “LITHIATED SILICON” (KING'S COLLEGE LONDON, priority 2020, published 2023).
# Tested on: Wnt/β-catenin cell signalling pathway (downstream target gene Axin2)
# Assay: Axin2 expression (qPCR) in cells in medium conditioned with particles
# Type: cell-based
# Conditions: 25 mM LiCl, 17IA4 cells
# Protocol: Biological activity of released lithium was measured by monitoring activation of Wnt/β-catenin cell signalling pathway by measuring the expression of the pathway's well-known downstream target gene Axin2. The experiment was done with cell medium conditioned with corresponding batch of nanoparticles. Known amounts of LipSi nanoparticles were pelleted with a centrifuge and sterile supernatant was removed. Nanoparticles were dried under tissue culture hood. Cell medium (αMEM supplemented with 10% FBS, 1% antibiotic/antimycotic solution and 25 mM HEPES) was added onto pellet and particles were redispersed with ultrasound. Concentrations of the particles were 0.8 mg/ml (FIG. 6a) and 1.6 mg/ml (FIG. 6b). Vials were incubated in thermoshaker at 37° C. for four days. Particles were centrifuged down and supernatant was collected under sterile conditions. Conditioned medium (supernatant) was filtered with 0.22 μm syringe filter.
# 20,000 cells/cm^2 of mesenchymal cells (17IA4) were seeded onto 24 well plate. Cells were incubated approximately for 24 hours until 80% confluent and the normal medium was changed to conditioned. Cells were incubated (37° C., 5% CO2) in conditioned medium for 24 h. […] Reported fold changes represent Axin2 expression in the sample compared to Axin2 expression in medium and they are calculated with ΔΔCt method as known in the art.
smiles,measurement,setting,value
"[Cl-].[Li+] [LiCl, lithium chloride]",increase of Axin2 expression compared to medium,experiment of FIG. 6a (with SS9),3.2 fold
same,increase of Axin2 expression compared to medium,experiment of FIG. 6b (with SS19),2.6 fold
